Several values for one entry are separate records, joined by “and”; a condition that tells them apart may be missing. Identical values can stand only once.
Assays:
[1] = Relative chemical stability of cyclopropenes measured by 1H-NMR; assay type: physicochemical; details: 1H-NMR, CDCl3, stored at −20° C. or room temperature; relative to chain length 1
Text: A variety of analysis methods can be used to analyze the derivatives of Formula 6, since the absorbance of cyclopropenes containing an aryl group can be easily measured in the UV range. It can be confirmed that the chemical stability of the derivatives increases, when the length of chains to link an aryl ring to a cyclopropene ring is 2 or more. […] It is supposed that the stability of cyclopropenes increase due to the fact that π electrons of aryl groups affect π electrons of cyclopropenes.
The following Table 1 summarizes the relative chemical stability of cyclopropenes having a chain length of 2, 3, 4 or 5, based on the chemical stability of cyclopropenes having a chain length of 1. In the case of cyclopropene having a chain length of 1, the structure thereof can be confirmed via ^1H-NMR within one hour following synthesis (degraded to a level of 50% or more within one hour at 30° C.). In the case of cyclopropene having a chain length of zero, synthesis thereof was attempted in accordance with the present invention, but was impossible by a conventional method. Meanwhile, in the case of cyclopropenes having a chain length of 2 or more, the structure thereof can be precisely confirmed by ^1H-NMR as well as ^13C-NMR. The stability of these cyclopropenes was measured by ^1H-NMR while NMR cells (CDCl3) were stored at −20° C. or room temperature. In particular, cyclopropenes having chains of 3 or more were so stable that their half-life reached 5 days or longer at −20° C. or lower. In ^1H-NMR analysis, the stability was evaluated by comparing integral values at 4 to 6.5 ppm (1H) and 0.8 to 0.9 ppm (2H), characteristic peaks of 1-alkylcyclopropenes, using a small amount of 1,1,3,3-tetramethylurea (2.80 ppm) as an internal standard. Furthermore, the stability was also qualitatively evaluated by comparing integral value of the peak newly generated adjacent to the peak of the olefin proton of cyclopropene ring, as a 1-alkylcyclopropene compound is decomposed.

tomato = assay: Experimental Example 3: Efficacy test on tomato for other drugs (emulsion and oil-based formulation); assay type: in vivo; details: individual tomatoes n=4
Procedure: At this time, the tops of tomatoes most early turned red, while the bottoms thereof most lately turned red. For this reason, in order to accurately evaluate the difference in reddening, the coloring evaluated was based on the area of red color, rather than the color of tomatoes. […] Accordingly, the grade level is proportional to the rate at which the tomatoes ripened.
1.0 mM emulsions and oil-based formulations of four agents, i.e., 1-(2-(4-methoxyphenyl)ethyl)cyclopropene, 1-(3-(4-methoxyphenyl)propyl)cyclopropene, 1-(3-phenoxypropyl)cyclopropene and 1-(4-phenoxybutyl)cyclopropene were prepared in accordance with Examples 1 and 2.
The tomatoes were screened in the same manner as in Experimental Example 1 and divided into 9 groups (n=4), i.e., a non-treated group and 4 emulsion-type agent groups and 4 oil-based formulation-type agent groups. Tomatoes were treated with the previously prepared agent using a household sprayer such that the surface thereof was saturated. The tomatoes were stood at room temperature (25-30° C.) for 3 days and a reddening level thereof was evaluated based on grades of 0 to 5.

C1=C(CCCOc2ccccc2)C1 [(3-Phenoxypropyl), 1-(3-phenoxypropyl)cyclopropene]
Stability (relative chemical stability, based on cyclopropenes having a chain length of 1) [1]: >>10 | reddening level (grade 0 to 5) (tomato; 1.0 mM Emulsion, Day 0, room temperature (25-30° C.)): 0 (an area in which the surface of tomato was colored in pink was 10% or less) (2×) and 1 (an area in which the surface of tomato was completely colored in red was 10 to 40%) and 2 (an area in which the surface of tomato was completely colored in red was 40 to 70%) | reddening level (grade 0 to 5) (tomato; 1.0 mM Emulsion, Day 1, room temperature (25-30° C.)): 0 (an area in which the surface of tomato was colored in pink was 10% or less) (2×) and 1 (an area in which the surface of tomato was completely colored in red was 10 to 40%) and 2 (an area in which the surface of tomato was completely colored in red was 40 to 70%) | reddening level (grade 0 to 5) (tomato; 1.0 mM Emulsion, Day 2, room temperature (25-30° C.)): 1 (an area in which the surface of tomato was completely colored in red was 10 to 40%) (2×) and 2 (an area in which the surface of tomato was completely colored in red was 40 to 70%) (2×) | reddening level (grade 0 to 5) (tomato; 1.0 mM Emulsion, Day 3, room temperature (25-30° C.)): 2 (an area in which the surface of tomato was completely colored in red was 40 to 70%) (2×) and 3 (an area in which the surface of tomato was completely colored in red was 70% or more and the bottom area remained green) (2×) | reddening level (grade 0 to 5) (tomato; 1.0 mM Oil-based formulation, Day 0, room temperature (25-30° C.)): 0 (an area in which the surface of tomato was colored in pink was 10% or less) (2×) and 1 (an area in which the surface of tomato was completely colored in red was 10 to 40%) and 2 (an area in which the surface of tomato was completely colored in red was 40 to 70%) | reddening level (grade 0 to 5) (tomato; 1.0 mM Oil-based formulation, Day 1, room temperature (25-30° C.)): 0 (an area in which the surface of tomato was colored in pink was 10% or less) (2×) and 1 (an area in which the surface of tomato was completely colored in red was 10 to 40%) and 2 (an area in which the surface of tomato was completely colored in red was 40 to 70%) | reddening level (grade 0 to 5) (tomato; 1.0 mM Oil-based formulation, Day 2, room temperature (25-30° C.)): 0 (an area in which the surface of tomato was colored in pink was 10% or less) (2×) and 2 (an area in which the surface of tomato was completely colored in red was 40 to 70%) and 3 (an area in which the surface of tomato was completely colored in red was 70% or more and the bottom area remained green) | reddening level (grade 0 to 5) (tomato; 1.0 mM Oil-based formulation, Day 3, room temperature (25-30° C.)): 1 (an area in which the surface of tomato was completely colored in red was 10 to 40%) (2×) and 2 (an area in which the surface of tomato was completely colored in red was 40 to 70%) and 3 (an area in which the surface of tomato was completely colored in red was 70% or more and the bottom area remained green)

Reference: patent US9072293B2, “Cyclopropenes and method for applying cyclopropenes to agricultural products or crops” (Erum Biotechnologies Inc., priority 2010, dated 2015)
